# In publication PMC8761912, “Cryptosporidium parvum Pyruvate Kinase Inhibitors With in vivo Anti-cryptosporidial Efficacy” (Frontiers in Microbiology, 2022):
# Like-named read-outs stand apart in the source and are kept apart here.
# What was measured:
# [1] = tested on: C. parvum; assay: In vitro anti-Cryptosporidium activity in infected HCT-8 cells (immunofluorescence assay); type: cell-based, Cryptosporidium parvum; conditions: for effect on in vitro proliferation and viability of C. parvum: 25 μM, added immediately after infection, 48 h of culture, vs untreated parasites; for EC50: Cryptosporidium parvum; for Selectivity index (CC50/EC50): HCT-8 CC50 / anti-C. parvum EC50; for effect on proliferation of intracellular C. parvum in HCT-8 cells: varying concentrations, 0 h or 2 h PI, analysed 48 h PI, vs infected cultures without compound
# Description: Once confluent, the cells were infected with 10^5 freshly excysted C. parvum sporozoites per well, immediately followed by the addition of anti-CpPyK compounds (reconstituted in DMSO) to one set of wells. Control infected cells were treated with DMSO volumes equivalent to those used for the compound-treated cultures. Paromomycin reconstituted in distilled sterile water, served as a positive control at a concentration of 200 μM. […] Briefly, the medium was removed from the culture wells, and the cells were washed two times with PBS before fixation with pre-chilled methanol-acetic acid (9:1) for 5 min at room temperature. Residual fixative was removed by rinsing the wells with PBS. Cells were rehydrated and permeabilized by washing twice with a buffer containing 0.1% Triton X-100, 0.35 M NaCl, and 0.13 M Tris-base, pH 7.6. Normal goat serum (5% in PBS) was used as a blocking agent, and the cell monolayer was stained with a fluorescein-labeled anti-C. parvum polyclonal antibody (Sporo-Glo™; Waterborne, Inc.) overnight at 4°C. The stained cells were washed twice with PBS followed by the addition of 200 μl water to each well. Plates were then imaged with an inverted fluorescence microscope using a 20× objective. The fluorescence generated by intracellular C. parvum parasites was quantified from nine microscopic fields per well of a 96-well plate using the batch process function in ImageJ version v1.50 (NIH, United States) after setting a threshold for the detection of parasites. Control wells with uninfected monolayers were included for background subtraction. Experiments were performed in triplicate and repeated at least three times.
# One set of wells with confluent HCT-8 cells received CpPyK inhibitors immediately after C. parvum infection, while the same compounds were added to the other set of wells 2 h post-infection (PI). Control infected cells were treated with varying volumes of DMSO equivalent to the ones used for the compound-treated cultures. Cell monolayers were processed for immunofluorescence analysis after 48 h of incubation as described above. Samples were run in triplicate and three independent assays were performed. EC50 values were calculated using non-linear regression analysis of the mean dose-response curve data in GraphPad PRISM® v8.
# [2] = Solubility; type: physicochemical; conditions: DMSO
# [3] = HCT-8, read-out: Anti-C. parvum EC50, 0 h PI
# [4] = HCT-8, read-out: Anti-C. parvum EC50, 2 h PI
Structure (SMILES),effect on in vitro proliferation and viability of C. parvum [1],"EC50 [1, 3]","EC50 [1, 4]",Selectivity index (CC50/EC50) [1],effect on proliferation of intracellular C. parvum in HCT-8 cells [1],solubility in DMSO [2]
"c1ccc(-c2nnc(-c3ccccn3)[nH]2)nc1 [NSC234945, 2-(3-pyridin-2-yl-1H-1,2,4-triazol-5-yl)pyridine]",significant inhibitory effect,86 µM,89.6 µM,5.02,significant (P < 0.05) concentration-dependent inhibitory effect,high solubility in DMSO
"CCOc1ccc(/C=C2\CCc3ccccc3C2=O)cc1 [NSC252172, (2E)-2-[(4-ethoxyphenyl)methylidene]-3,4-dihydronaphthalen-1-one]",significant inhibitory effect,17.6 µM,18.7 µM,15.10,significant (P < 0.05) concentration-dependent inhibitory effect,
"Cc1cc2c(c(C#N)c1C)NC=NC2C (stereo not drawn) [NSC303244, 4,6,7-trimethyl-1,4-dihydroquinazoline-8-carbonitrile]",significant inhibitory effect,10.3 µM,15.8 µM,64.15,significant (P < 0.05) concentration-dependent inhibitory effect,
"N#C/C(=C\c1cc(O)c(O)c(O)c1)C(N)=O [NSC638080, (E)-2-cyano-3-(3,4,5-trihydroxyphenyl)prop-2-enamide]",significant inhibitory effect,10.9 µM,14.7 µM,68.96,significant (P < 0.05) concentration-dependent inhibitory effect,
